Laboratory results reported in patent US20210283139A1, “BIFUNCTIONAL MOLECULES FOR TARGETING UCHL5” (AMPHISTA THERAPEUTICS LTD, priority 2018, published 2021).

Legend:
Type in all cases: cell-based
Brd2 [1] = target: T1, Brd2 (Homo sapiens, UniProt P25440); assay: Time-dependent BET degradation, immunoblot, HEK293 cells; set-up: endogenous in cells; host or cells: HEK293; settings: HEK293, Brd2, 1 μM, timecourse 0-8 h
Method: (§1) Cell culture. HeLa (CCL-2) and HEK293 (CRL-1573) cells were purchased from ATCC and cultured in DMEM medium (Gibco) supplemented with 10% FBS, 100 μg/mL penicillin/streptomycin and L-glutamine. Cells were grown at 37° C. and 5% CO2, and were kept no longer than 30 passages. All cell lines were routinely tested for mycoplasma contamination using MycoAlert kit from Lonza.
(§2) Immunoblotting. proteins were separated by SDS-PAGE on NuPage 4-12% Bis-Tris gels, followed by transfer to Amersham Protran 0.45 NC nitrocellulose membrane (GE Healthcare) using wet transfer. Membranes were blocked using 5% w/v milk in Tris-buffered saline (TBS) with 0.1% Tween-20. Blots were probed (overnight at 4° C.) using anti-Brd2 (Abcam ab139690, 1:2,000 dilution), anti-Brd3 (Abcam ab50818, 1:500 dilution), and anti-Brd4 (Abcam ab128874, 1:1,000 dilution) primary antibodies, as appropriate. The next day, blots were washed with TBST and incubated (1 hr at RT) with anti-Tubulin hFAB-rhodamine (BioRad, 12004166) primary antibody, and either anti-rabbit IRDye 800CW (Licor 1:10,000 dilution) or anti-mouse IRDye 800CW (Licor 1:10,000 dilution) secondary antibody. Blots were developed using a Bio-Rad ChemiDoc MP Imaging System, and band quantification was performed using Image Studio software (LiCor). Band intensities were normalized to the tubulin loading control and reported as % of the average 0.1% DMSO vehicle intensity. Degradation data was plotted and analysed using Prism (Graphpad, version 8).
(§3) HeLa (3×10^5) and HEK293 (0.5×10^6) cells were seeded in standard 6-well plates (2 mL medium) overnight before treatment with compounds at 1 μM concentration, with a final DMSO concentration of 0.1% v/v. After incubation for the desired time (0-8 h), cells were washed with DPBS (Gibco) and lysed using 85 μL RIPA buffer (Sigma-Aldrich) supplemented with cOmplete Mini EDTA-free protease inhibitor cocktail (Roche) and benzonase. Lysates were clarified by centrifugation (20,000 g, 10 min, 4° C.) and the total protein content of the supernatant was quantified using a Bradford colorimetric assay. Samples were prepared using equal amounts of total protein and LDS sample buffer (Invitrogen).
(§4) Representative blots in FIG. 4 show depletion of Brd2, Brd3 and Brd4 protein levels following 1 μM treatment at various time points with representative compounds. Band intensities were normalized to the β-tubulin loading control and reported as % of the average 0.1% DMSO vehicle intensity, with each point representing mean±SEM of two independent experiments (n=2). Degradation data was plotted and analysed using Prism (Graphpad, version 8).
(§5) T½ (h) is the time required to deplete 50% of the protein relative to DMSO

Brd3 [2] = target: T2, Brd3 (Homo sapiens, UniProt Q15059); assay: as above; set-up: endogenous in cells; host or cells: HEK293; settings: HEK293, Brd3, 1 μM, timecourse 0-8 h
Method: as §1, §2, §3, §4, §5

Brd4 (S) [3] = target: T3, Brd4 (S) (Homo sapiens, UniProt O60885); assay: Time-dependent BET degradation, immunoblot, HeLa cells; set-up: dose or concentration left out as unconfirmed; settings: timecourse 0-8 h
T3 construct: endogenous in cells; host or cells: HEK293, HeLa
Method: as §1, §2, §3, §4, §5

Brd4 (L) [4] = target: T4, Brd4 (L) (Homo sapiens, UniProt O60885); assay: as above; set-up: dose or concentration left out as unconfirmed; settings: timecourse 0-8 h
T4 construct: endogenous in cells; host or cells: HEK293, HeLa
Method: as §1, §2, §3, §4, §5

Brd2 [5] = target: T1, Brd2; assay: as above; set-up: endogenous in cells; host or cells: HeLa; settings: Brd2, 1 μM, timecourse 0-8 h
Method: as §1, §2, §3, §4, §5

Brd3 [6] = target: T2, Brd3; assay: as above; set-up: endogenous in cells; host or cells: HeLa; settings: Brd3, 1 μM, timecourse 0-8 h
Method: as §1, §2, §3, §4, §5

Brd2 [7] = target: T1, Brd2; assay: Concentration-dependent BET degradation, immunoblot, HEK293 cells; set-up: endogenous in cells; host or cells: HEK293; settings: HEK293, Brd2, 6 h treatment, 1 nM-10 μM; for Dmax: read-out: Dmax (%) maximum degradation observed
Method: as §1, §2
as §3, with “(5×10^5)” for “(3×10^5)”, “(1×10^6)” for “(0.5×10^6)”, “the desired concentration (1 nM-10 μM),” for “1 μM concentration,”, “6 h treatment time,” for “incubation for the desired time (0-8 h),”, “(20,000g,” for “(20,000 g,”, “(Invitrogen.” for “(Invitrogen).”
(§6) Representative blots in FIG. 3 show depletion of Brd2, Brd3 and Brd4 protein levels following treatment with increasing concentrations of representative compounds. Band intensities were normalized to the β-tubulin loading control and reported as % of the average 0.1% DMSO vehicle intensity, with each point representing mean±SEM of two independent experiments (n=2). Degradation data was plotted and analysed using Prism (Graphpad, version 8)

Brd3 [8] = target: T2, Brd3; assay: as above; set-up: endogenous in cells; host or cells: HEK293; settings: HEK293, Brd3, 6 h treatment, 1 nM-10 μM; for Dmax: read-out: Dmax (%) maximum degradation observed
Method: as §1, §2
as §3, with “(5×10^5)” for “(3×10^5)”, “(1×10^6)” for “(0.5×10^6)”, “the desired concentration (1 nM-10 μM),” for “1 μM concentration,”, “6 h treatment time,” for “incubation for the desired time (0-8 h),”, “(20,000g,” for “(20,000 g,”, “(Invitrogen.” for “(Invitrogen).”
as §6

Brd2 [9] = target: T1, Brd2; assay: Concentration-dependent BET degradation, immunoblot, HeLa cells; set-up: endogenous in cells; host or cells: HeLa; settings: Brd2, 6 h treatment, 1 nM-10 μM; for Dmax: read-out: Dmax (%) maximum degradation observed
Method: as §1, §2
as §3, with “(5×10^5)” for “(3×10^5)”, “(1×10^6)” for “(0.5×10^6)”, “the desired concentration (1 nM-10 μM),” for “1 μM concentration,”, “6 h treatment time,” for “incubation for the desired time (0-8 h),”, “(20,000g,” for “(20,000 g,”, “(Invitrogen.” for “(Invitrogen).”
as §6

Brd3 [10] = target: T2, Brd3; assay: as above; set-up: endogenous in cells; host or cells: HeLa; settings: Brd3, 6 h treatment, 1 nM-10 μM; for Dmax: read-out: Dmax (%) maximum degradation observed
Method: as §1, §2
as §3, with “(5×10^5)” for “(3×10^5)”, “(1×10^6)” for “(0.5×10^6)”, “the desired concentration (1 nM-10 μM),” for “1 μM concentration,”, “6 h treatment time,” for “incubation for the desired time (0-8 h),”, “(20,000g,” for “(20,000 g,”, “(Invitrogen.” for “(Invitrogen).”
as §6

Brd4 (S) [11] = target: T3, Brd4 (S); assay: Concentration-dependent BET degradation, immunoblot, HEK293 cells; settings: 6 h treatment, 1 nM-10 μM; for Dmax: read-out: Dmax (%) maximum degradation observed
Method: as §1, §2
as §3, with “(5×10^5)” for “(3×10^5)”, “(1×10^6)” for “(0.5×10^6)”, “the desired concentration (1 nM-10 μM),” for “1 μM concentration,”, “6 h treatment time,” for “incubation for the desired time (0-8 h),”, “(20,000g,” for “(20,000 g,”, “(Invitrogen.” for “(Invitrogen).”
as §6

Brd4 (L) [12] = target: T4, Brd4 (L); assay: as above; settings: 6 h treatment, 1 nM-10 μM; for Dmax: read-out: Dmax (%) maximum degradation observed
Method: as §1, §2
as §3, with “(5×10^5)” for “(3×10^5)”, “(1×10^6)” for “(0.5×10^6)”, “the desired concentration (1 nM-10 μM),” for “1 μM concentration,”, “6 h treatment time,” for “incubation for the desired time (0-8 h),”, “(20,000g,” for “(20,000 g,”, “(Invitrogen.” for “(Invitrogen).”
as §6

Brd4 (S) [13] = target: T3, Brd4 (S); assay: Concentration-dependent BET degradation, immunoblot, HeLa cells; settings: 6 h treatment, 1 nM-10 μM; for Dmax: read-out: Dmax (%) maximum degradation observed
Method: as §1, §2
as §3, with “(5×10^5)” for “(3×10^5)”, “(1×10^6)” for “(0.5×10^6)”, “the desired concentration (1 nM-10 μM),” for “1 μM concentration,”, “6 h treatment time,” for “incubation for the desired time (0-8 h),”, “(20,000g,” for “(20,000 g,”, “(Invitrogen.” for “(Invitrogen).”
as §6

Brd4 (L) [14] = target: T4, Brd4 (L); assay: as above; settings: 6 h treatment, 1 nM-10 μM; for Dmax: read-out: Dmax (%) maximum degradation observed
Method: as §1, §2
as §3, with “(5×10^5)” for “(3×10^5)”, “(1×10^6)” for “(0.5×10^6)”, “the desired concentration (1 nM-10 μM),” for “1 μM concentration,”, “6 h treatment time,” for “incubation for the desired time (0-8 h),”, “(20,000g,” for “(20,000 g,”, “(Invitrogen.” for “(Invitrogen).”
as §6

Brd4 (S) [15] = target: T3, Brd4 (S); assay: Time-dependent BET degradation, immunoblot, HEK293 cells; set-up: dose or concentration left out as unconfirmed; settings: timecourse 0-8 h
Method: as §1, §2, §3, §4, §5

Brd4 (L) [16] = target: T4, Brd4 (L); assay: as above; set-up: dose or concentration left out as unconfirmed; settings: timecourse 0-8 h
Method: as §1, §2, §3, §4, §5

T2 sequence (Q15059 whole entry): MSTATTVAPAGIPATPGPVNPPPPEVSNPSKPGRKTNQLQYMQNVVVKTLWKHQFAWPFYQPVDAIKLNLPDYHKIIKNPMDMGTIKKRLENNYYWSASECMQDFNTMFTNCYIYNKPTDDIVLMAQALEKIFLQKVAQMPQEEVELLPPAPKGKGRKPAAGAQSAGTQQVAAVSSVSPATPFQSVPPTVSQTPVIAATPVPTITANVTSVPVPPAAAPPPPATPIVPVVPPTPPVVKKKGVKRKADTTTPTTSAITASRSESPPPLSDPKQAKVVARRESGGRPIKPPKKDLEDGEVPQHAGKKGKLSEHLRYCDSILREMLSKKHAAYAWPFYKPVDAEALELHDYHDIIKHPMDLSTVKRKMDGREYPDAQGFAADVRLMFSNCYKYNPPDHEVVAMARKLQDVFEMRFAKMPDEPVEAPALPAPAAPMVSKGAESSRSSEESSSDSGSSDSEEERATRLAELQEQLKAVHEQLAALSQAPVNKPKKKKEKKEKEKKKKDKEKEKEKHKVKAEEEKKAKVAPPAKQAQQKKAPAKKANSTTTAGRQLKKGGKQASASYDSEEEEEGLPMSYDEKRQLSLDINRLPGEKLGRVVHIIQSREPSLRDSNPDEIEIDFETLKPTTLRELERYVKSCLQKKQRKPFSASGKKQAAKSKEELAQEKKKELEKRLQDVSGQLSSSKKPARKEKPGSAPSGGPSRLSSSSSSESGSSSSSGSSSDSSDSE
T1 sequence (P25440 whole entry): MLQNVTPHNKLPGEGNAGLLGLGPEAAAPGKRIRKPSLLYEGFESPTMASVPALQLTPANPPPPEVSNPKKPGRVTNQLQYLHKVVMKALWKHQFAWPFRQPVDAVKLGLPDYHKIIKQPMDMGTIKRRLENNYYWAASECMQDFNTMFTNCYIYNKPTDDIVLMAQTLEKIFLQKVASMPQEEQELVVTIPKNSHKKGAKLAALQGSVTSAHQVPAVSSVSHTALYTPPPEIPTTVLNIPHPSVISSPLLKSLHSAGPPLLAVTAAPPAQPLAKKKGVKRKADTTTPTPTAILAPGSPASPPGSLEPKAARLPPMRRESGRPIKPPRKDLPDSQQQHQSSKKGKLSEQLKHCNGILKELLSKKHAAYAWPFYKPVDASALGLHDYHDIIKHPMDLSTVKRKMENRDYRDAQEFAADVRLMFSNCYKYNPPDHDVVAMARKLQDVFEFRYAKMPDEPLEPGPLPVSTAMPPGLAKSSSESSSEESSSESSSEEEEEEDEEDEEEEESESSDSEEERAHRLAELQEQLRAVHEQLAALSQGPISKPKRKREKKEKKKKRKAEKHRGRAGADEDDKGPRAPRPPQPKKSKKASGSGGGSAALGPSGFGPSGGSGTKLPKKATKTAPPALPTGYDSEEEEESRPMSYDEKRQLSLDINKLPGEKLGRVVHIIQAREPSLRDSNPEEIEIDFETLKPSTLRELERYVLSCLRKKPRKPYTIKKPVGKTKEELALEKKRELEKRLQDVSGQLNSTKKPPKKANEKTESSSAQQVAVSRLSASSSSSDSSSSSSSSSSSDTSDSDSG

Dmax at 1 µM (Brd2 [1]) [%]	Dmax at 1 µM (Brd3 [2]) [%]	Dmax (Brd4 (S) [3]) [%]	Dmax (Brd4 (L) [4]) [%]	Dmax at 1 µM (Brd2 [5]) [%]	Dmax at 1 µM (Brd3 [6]) [%]	DC50 (Brd2 [7]) [nM]	Dmax (Brd2 [7]) [%]	DC50 (Brd3 [8]) [nM]	Dmax (Brd3 [8]) [%]	DC50 (Brd2 [9]) [nM]	Dmax (Brd2 [9]) [%]	DC50 (Brd3 [10]) [nM]	Dmax (Brd3 [10]) [%]	DC50 (Brd4 (S) [11]) [nM]	Dmax (Brd4 (S) [11]) [%]	DC50 (Brd4 (L) [12]) [nM]	Dmax (Brd4 (L) [12]) [%]	Dmax (Brd4 (S) [13]) [%]	Dmax (Brd4 (L) [14]) [%]	SMILES	further results
76	100	67	67	50	93	51 to 500	51 to 70	51 to 500	≥ 71	51 to 500	26 to 50	51 to 500	26 to 50	≤ 50	≥ 71	≤ 50	≥ 71	≥ 71	≥ 71	CCCC(NC(=O)/C(C#N)=C/c1cccc(Br)n1)c1ccc(OCC=NOCC(=O)NCCOCCOCCOCCNC(=O)c2ccc3c(c2)[C@H](Nc2ccc(Cl)cc2)C[C@H](C)N3C(C)=O)cc1 (some centres unmarked) [Example 05IB2]	DC50 (Brd4 (S) [13]): 51 to 500 nM; DC50 (Brd4 (L) [14]): 51 to 500 nM; Dmax (Brd4 (S) [15]): 100%; Dmax (Brd4 (L) [16]): 100%
82	90	100	100	97	100	51 to 500	51 to 70	51 to 500	≥ 71	≤ 50	≥ 71	51 to 500	≥ 71	≤ 50	≥ 71	≤ 50	≥ 71	≥ 71	51 to 70	CCCC(NC(=O)/C(C#N)=C/c1nc(Cl)ccc1Cl)c1ccc(OCCOCCOCCOCCOCCOCCOCCNC(=O)c2ccc(-c3ccc4c(c3)[C@H](Nc3ccc(Cl)cc3)C[C@H](C)N4C(C)=O)cc2)cc1 (some centres unmarked) [Example 05IB10]	DC50 (Brd4 (S) [13]): 51 to 500 nM; DC50 (Brd4 (L) [14]): ≤ 50 nM; Dmax (Brd4 (S) [15]): 99%; Dmax (Brd4 (L) [16]): 100%
							≤ 25		≤ 25		≤ 25		26 to 50		26 to 50		≤ 25	≤ 25	≤ 25	CCCC(NC(=O)C(C#N)Cc1cccc(Br)n1)c1ccc(OCCOCCOCCOCCOCCOCCOCCNC(=O)c2ccc(-c3ccc4c(c3)[C@H](Nc3ccc(Cl)cc3)C[C@H](C)N4C(C)=O)cc2)cc1 (some centres unmarked) [Example 05IB12]	
